Reference: patent US7348401B2, “Peptides that inhibit complement activation” (priority 2003, dated 2008)
Where two headings read alike, the source gives them in different places.

What was measured:
classical pathway = experiment: Classical pathway component assay (immune complex, ELISA for C5a, SC5b-9, C3a); format: biochemical, human; details: for complement inhibiting activity (C5a and SC5b-9 production), alanine scan of Peptide 7: immune complex-classical pathway assay, compared with Peptide 7
Description: The inhibition of the classical pathway by the peptides was measured by incubating human plasma in the presence and absence of peptides with an immune complex generated on a surface and then monitoring for the production of complement components C5a, SC5b-9, and C3a. To generate the immune complex, a 10 mg/mL solution of BSA in PBS was incubated at 56° C. for 30 minutes and then used to coat the surface of a microplate by diluting to 50 μg/mL at pH 9.6 and incubating for one hour at 37° C. The plate was washed and then incubated with 18 μg/mL mouse anti-BSA IgG2a (Sigma) for one hour at 37° C. Pooled human plasma with and without various concentrations of peptide were incubated for 30 minutes at 37° C. with the generated immune complex and the reaction was stopped with the addition of EDTA. The plasma samples were then analyzed with commercially available ELISA's for the production of C5a (Pharmingen), SC5b-9 (Quidel), and C3a (Quidel).

[1] = tested on: classical pathway; antibody sensitized sheep erythrocyte cells; experiment: Classical pathway hemolytic assay (RBC hemolysis assay); format: cell-based, human
Description: Inhibition of the classical pathway by the peptides was measured using a standard hemolysis assay, which monitors the lysis of sheep erythrocytes as a result of terminal complex formation (see e.g. FIG. 1, FIG. 10). Various concentrations of peptide were incubated with 50 μL pooled human plasma (diluted 1:30 with GVB^++), 5×10^7 antibody sensitized sheep erythrocyte cells, and GVB^++ buffer to a final volume of 200 μL. The reaction was incubated at 37° C. for one hour and centrifuged. The percentage of lysis was determined by measuring the optical density of the supernatant at 414 nm. 100% lysis was determined by the optical density at 414 nm of the supernatant from a control sample consisting of 5×10^7 antibody sensitized sheep erythrocyte cells in water. The percent inhibition was calculated as the (% lysisno peptide−% lysispeptide)/% lysisno peptide×100.

[2] = tested on: complement system activated by zymosan; experiment: Alternative activation pathway zymosan assay (ELISA for C5a, SC5b-9, C3a); format: biochemical; details: 2 mg/mL zymosan, human plasma
Description: The peptides were evaluated for involvement in activation of the complement system by the presence of zymosan. Zymosan, or yeast cell wall, has largely been described as an alternative pathway activator. In addition, there are sugars on the surface of the yeast cell wall which are capable of activating the lectin pathway. Therefore, zymosan can be considered as a general complement activator.
Varying concentrations of peptide were incubated with 2 mg/mL zymosan in pooled human plasma. The reactions were incubated at 37° C. for one hour and then stopped by the addition of EDTA. The samples were centrifuged, the plasma removed, and analyzed with commercially available ELISA's for the production of C5a (Pharmingen), SC5b-9 (Quidel), and C3a (Quidel).

alternative pathway = experiment: Alternative activation pathway C.A. membrane assay (ELISA for C5a, SC5b-9, C3a); format: biochemical; details: cellulose acetate hemodialysis membrane, human plasma
Description: Inhibition of the alternative pathway by the peptides was determined by incubating pooled human plasma in the presence and absence of various concentrations of peptide with 20 mg of cellulose acetate hemodialysis membrane at 37° C. for one hour. The reaction was stopped with EDTA and then the samples were analyzed with commercially available ELISA's for the production of C5a (Pharmingen), SC5b-9 (Quidel), and C3a (Quidel).

complement component C5 = target: T1, complement component C5 (Homo sapiens, UniProt P01031); experiment: Phage clone binding to C5 and free-peptide competition assay
T1 construct: purchased Advanced Research Technologies
T1 sequence (P01031 19-1676): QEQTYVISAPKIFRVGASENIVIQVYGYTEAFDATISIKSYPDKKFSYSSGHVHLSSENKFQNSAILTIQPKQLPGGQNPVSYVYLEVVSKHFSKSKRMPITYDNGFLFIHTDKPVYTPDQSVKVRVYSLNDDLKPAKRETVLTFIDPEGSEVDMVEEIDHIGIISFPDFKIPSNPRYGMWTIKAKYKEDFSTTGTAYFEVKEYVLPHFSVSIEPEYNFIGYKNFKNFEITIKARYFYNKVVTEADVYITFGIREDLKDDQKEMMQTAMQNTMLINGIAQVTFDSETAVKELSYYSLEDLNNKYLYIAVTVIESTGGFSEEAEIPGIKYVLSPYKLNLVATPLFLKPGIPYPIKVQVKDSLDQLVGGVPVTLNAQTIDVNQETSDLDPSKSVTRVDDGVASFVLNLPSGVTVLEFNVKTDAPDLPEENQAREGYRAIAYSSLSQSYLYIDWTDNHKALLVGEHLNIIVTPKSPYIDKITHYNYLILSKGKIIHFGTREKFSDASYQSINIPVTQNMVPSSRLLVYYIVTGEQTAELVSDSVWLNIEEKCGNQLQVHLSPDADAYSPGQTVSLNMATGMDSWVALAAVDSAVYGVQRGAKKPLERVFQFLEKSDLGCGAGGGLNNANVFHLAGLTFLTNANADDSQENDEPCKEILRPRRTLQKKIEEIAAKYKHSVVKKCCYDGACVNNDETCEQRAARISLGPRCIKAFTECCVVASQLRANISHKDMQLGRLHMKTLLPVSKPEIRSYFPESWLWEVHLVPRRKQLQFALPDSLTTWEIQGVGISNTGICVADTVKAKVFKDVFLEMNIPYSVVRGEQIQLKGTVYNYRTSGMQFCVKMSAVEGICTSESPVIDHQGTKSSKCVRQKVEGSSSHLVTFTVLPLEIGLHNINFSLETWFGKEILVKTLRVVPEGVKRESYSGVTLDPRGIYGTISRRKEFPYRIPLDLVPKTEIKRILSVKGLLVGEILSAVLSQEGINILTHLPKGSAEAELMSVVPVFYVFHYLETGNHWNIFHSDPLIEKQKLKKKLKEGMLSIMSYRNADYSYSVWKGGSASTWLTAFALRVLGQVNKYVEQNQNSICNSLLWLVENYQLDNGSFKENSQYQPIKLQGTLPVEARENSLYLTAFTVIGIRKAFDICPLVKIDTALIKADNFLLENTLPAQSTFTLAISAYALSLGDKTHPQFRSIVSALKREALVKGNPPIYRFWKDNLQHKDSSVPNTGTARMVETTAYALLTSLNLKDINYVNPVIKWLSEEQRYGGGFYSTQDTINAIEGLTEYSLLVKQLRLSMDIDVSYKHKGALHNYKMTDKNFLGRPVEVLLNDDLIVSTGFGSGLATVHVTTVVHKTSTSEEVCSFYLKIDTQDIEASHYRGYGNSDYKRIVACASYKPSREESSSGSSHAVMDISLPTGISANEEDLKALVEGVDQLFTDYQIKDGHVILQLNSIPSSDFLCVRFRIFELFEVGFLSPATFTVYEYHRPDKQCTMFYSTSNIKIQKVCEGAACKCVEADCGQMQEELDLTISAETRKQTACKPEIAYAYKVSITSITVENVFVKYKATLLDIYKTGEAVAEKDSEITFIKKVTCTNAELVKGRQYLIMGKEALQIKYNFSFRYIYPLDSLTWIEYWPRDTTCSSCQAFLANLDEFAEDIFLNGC
Description: Peptides were identified by panning an M13 phage library (New England Biolabs), a random 12mer peptide library with a diversity of 10^11 different peptide structures, against complement component C5. The phage library was panned against C5 using three different methods for immobilizing C5. The binding reactions all contained 2×10^11 phage particles in PBS containing 0.5% BSA and 0.3% Tween 20. The binding reactions were carried out at 25° C. for two hours and then unbound phage were removed by washing 5 times with PBS containing 0.5% BSA and 0.3% Tween20. The phage were eluted by acid (0.2 M Glycine pH 2.2, 1 mg/mL BSA) and immediately neutralized with 1 M Tris pH 9.1. Following elution, recovered phage were amplified in ER2738 E. coli (NEB) and subjected to two more rounds of panning as described above. The methods for immobilizing C5 include directly coating C5 (Advanced Research Technologies) to the surface (1 μg/mL), capturing biotinylated C5 (1 μg/mL) on a neutravidin (Pierce) coated surface, and capturing biotinylated C5a (1 μg/mL) on a neutravidin (Pierce) coated surface. C5 and C5a (Quidel) were biotinylated by incubating with 10 fold molar excess of Sulfo-NHS-LC-LC-Biotin for 2 hours at room temperature at pH 7.4 and then removing excess biotin by gel filtration. A negative selection was performed in the final round against neutravidin for the two latter screening methods. DNA from twenty randomly selected clones from each of the three final libraries was isolated and sequenced.
The binding sites of the peptides were further probed via C5-binding competition assays. Increasing concentrations of each phage clone were incubated for 2 hours with 200 ng of biotinylated C5 in PBS containing 0.5% BSA. The phage bound C5 complex was captured on a neutravidin coated microplate for 20 minutes at room temperature and then washed with PBS containing 0.5% BSA. A peroxidase labeled anti-M13 antibody (Pharmacia) was used to detect the amount of phage bound to C5 with OPD substrate. Competition assays with free peptide were carried out in a similar manner except that one concentration of each phage clone was used which was determined as the concentration giving approximately 50% binding in the previous titration. Free peptide was added to the phage clones at concentrations of 50, 10 and 1 μM and incubated with the biotinylated C5 and the assay was carried out as above.

[3] = classical pathway, immune complex, human plasma

| Substance | inhibitory activity in RBC hemolysis assay compared with parent peptide [1] | further results |
| --- | --- | --- |
| 18: Peptide 7 with alanine substituted for a residue L on the amino-terminal side of the consensus sequence (SFNDALWRWEWP; complement inhibitor) [Peptide 18] |  | complement inhibiting activity (C5a and SC5b-9 production), alanine scan of Peptide 7 (classical pathway): slightly greater inhibitory activity |
| 19: Peptide 7 with alanine substituted for a residue L on the amino-terminal side of the consensus sequence (SFNDLAWRWEWP; complement inhibitor) [Peptide 19] |  | complement inhibiting activity (C5a and SC5b-9 production), alanine scan of Peptide 7 (classical pathway): slightly greater inhibitory activity |
| 20: Peptide 7 with alanine substituted for residue W on the amino-terminal side of the consensus sequence (SFNDLLARWEWP; complement inhibitor) [Peptide 20] |  | complement inhibiting activity (C5a and SC5b-9 production), alanine scan of Peptide 7 (classical pathway): slightly greater inhibitory activity |
| 112: Peptide 46 with a tri-peptide substituted for X1, third amino acid glutamic acid (EAEVRWEFPL; complement inhibitor) [Peptide 112] | enhanced the levels of inhibitory activity |  |
| 115: Peptide 46 with a tri-peptide substituted for X1, third amino acid glutamic acid (LAEVRWEFPL; complement inhibitor) [Peptide 115] | enhanced the levels of inhibitory activity |  |
| 119: Peptide 46 with a tri-peptide substituted for X1, third amino acid glutamic acid (TTEVRWEFPL; complement inhibitor) [Peptide 119] | enhanced the levels of inhibitory activity |  |
| 120: Peptide 46 with a tri-peptide substituted for X1, third amino acid glutamic acid (TLEVRWEFPL; complement inhibitor) [Peptide 120] | enhanced the levels of inhibitory activity |  |
| DSTWTNFRWEFY [Peptide 8] |  | C3a generation [2]: no observeable effect; C5a production [2]: inhibited; SC5b-9 production [2]: inhibited; C3a production (classical pathway; [3]): neither of these peptides produced an effect; C5a production (classical pathway; [3]): dose-dependent increase in the inhibition; SC5b-9 production (classical pathway; [3]): dose-dependent increase in the inhibition; C3a production (alternative pathway): no effect; C5a generation (alternative pathway): dose-dependent inhibition; SC5b-9 generation (alternative pathway): dose-dependent inhibition; inhibition of hemolysis ([1]; 100 uM peptide): significant inhibition of hemolysis; competition among phage clones and free peptides for binding to C5 (complement component C5; free peptide at 50, 10 and 1 μM): significant competition; specific binding to complement component C5 (complement component C5; phage panning / phage clone binding): specifically bound complement component C5 |
| Peptide 46: 10-mer: Peptide 13 with the two residues removed from the carboxyl terminus (TQDNRWEFPL; complement inhibitor) | appears to increase the activity |  |
| Peptide 50: eight-mer: Peptide 13 with two amino acids removed from both ends (DNRWEFPL; complement inhibitor) |  | original activity retained in RBC hemolysis assay ([1]; relative to Peptide 13): 100% |
| Peptide 53: Peptide 50 with glutamic acid substituted for the aspartic acid at position 1 (ENRWEFPL; complement inhibitor) | appeared to increase the inhibitory activity |  |
| Peptide 54: Peptide 50 with asparagine substituted for the aspartic acid residue (NNRWEFPL; complement inhibitor) | little effect on the inhibitory activity |  |
| Peptide 55: Peptide 50 with arginine at position 3 changed to lysine (DNKWEFPL; complement inhibitor) | lowers the inhibiting activity |  |
| Peptide 56: Peptide 50 with arginine at position 3 changed to histidine (DNHWEFPL; complement inhibitor) | lowers the inhibiting activity |  |
| Peptide 60: Peptide 50 with tryptophan replacing the phenylalanine at X4 (DNRWEWPL; complement inhibitor) | more severe losses |  |
| Peptide 61: Peptide 50 with tyrosine substituted for the phenylalanine at position 6 (DNRWEYPL; complement inhibitor) | minimal loss of activity |  |
| Peptide 64: Peptide 50 with leucine replacing the phenylalanine at X4 (DNRWELPL; complement inhibitor) | more severe losses |  |
| Peptide 83: Peptide 46 derivative with a glutamic acid at X1; listed in both the X2 and X1 series (AAEVRWEFPL; complement inhibitor) | highest level of inhibitory activity |  |
| Peptide 84: Peptide 46 derivative with a glutamic acid at X1 (TAEVRWEFPL; complement inhibitor) | highest level of inhibitory activity | inhibitory activity in RBC hemolysis assay compared with parent peptide ([1]; listed as SEQ ID NO 84): enhanced the levels of inhibitory activity |
| Peptide 90: Peptide 46 derivative with isoleucine at X1 (TAIVRWEFPL; complement inhibitor) | almost comparable activity |  |
| Peptide 91: Peptide 46 derivative with leucine at X1 (TALVRWEFPL; complement inhibitor) | almost comparable activity |  |
| Peptide 95: Peptide 46 derivative with proline at X1 (TAPVRWEEPL; complement inhibitor) | almost comparable activity |  |
